The source of these data is ChEMBL document CHEMBL1123438, “Queuine analogues. Their synthesis and inhibition of growth of mouse L5178Y cells in vitro” (1986).

Assay [1] concerns the target T1, Queuine tRNA-ribosyltransferase catalytic subunit 1 (Rattus norvegicus) (UniProt Q4QR99).
T1 sequence (whole entry): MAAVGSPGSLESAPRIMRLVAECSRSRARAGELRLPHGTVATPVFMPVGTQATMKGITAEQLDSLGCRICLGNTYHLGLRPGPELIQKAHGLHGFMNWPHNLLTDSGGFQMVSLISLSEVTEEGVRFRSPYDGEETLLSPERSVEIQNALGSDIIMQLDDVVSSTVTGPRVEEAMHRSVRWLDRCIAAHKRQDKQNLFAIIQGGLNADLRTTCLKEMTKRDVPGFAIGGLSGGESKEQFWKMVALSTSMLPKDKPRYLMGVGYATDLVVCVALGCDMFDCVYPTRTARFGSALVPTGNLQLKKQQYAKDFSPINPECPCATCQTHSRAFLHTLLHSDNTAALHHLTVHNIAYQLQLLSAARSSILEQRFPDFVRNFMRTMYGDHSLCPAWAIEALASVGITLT
Put plainly: Ability to act as substrate of rat liver tRNA-Guanine Transglycosylase.

Assay [2] deals with L5178Y. Put plainly: Inhibition of L5178Y cell growth at 100 ug/mL.
For assay [3], the system named is L5178Y. Put plainly: Inhibition of L5178Y cell growth at 10 ug/mL.
Assay [4] concerns L5178Y. Put plainly: Compound was tested for inhibition of growth of L5178Y cells at concentration of 1 ug/mL. The format is functional. The settings on record: Mus musculus.

For the compound `Nc1nc(O)c2c(CN3CCCCC3)c[nH]c2n1`, in assay [1], the Incorporation came to 65%. Also, the figures for the Inhibition with L5178Y [2] and in the assay on L5178Y [3] were 36% and less than 10%, respectively.
The compound `Nc1nc(O)c2c(n1)N=CC2CNCC(=O)O` (stereo unspecified) had an Incorporation in assay [1] of 48%. Further, the Inhibition in the assay on L5178Y [2] is reported as 20%; in the assay with L5178Y [3], less than 10%.
With `Nc1nc(O)c2c(CNC3CCCC3)c[nH]c2n1`, the Incorporation in assay [1] came to 80%. Moreover, the Inhibition in the assay with L5178Y [2] is 74%; in the assay on L5178Y [3], 17%.
As to `Nc1nc(O)c2c(CNC3C=C[C@@H](O)[C@H]3O)c[nH]c2n1` (stereo partly specified), the Incorporation in assay [1] is 100%. Besides, the values for the Inhibition in the assay on L5178Y [2] and in the assay with L5178Y [3] were 20% and less than 10%, respectively.
As to `CCCNCc1c[nH]c2nc(N)nc(O)c12`, the Incorporation in assay [1] is 94%. Besides, the values for the Inhibition in the assay on L5178Y [2] and in the assay with L5178Y [3] were 43% and less than 10%, respectively.
The compound `Nc1nc(O)c2c(CNC(=O)CI)c[nH]c2n1` gave an inhibition at 1 µg/mL in the assay on L5178Y [4] of 49%. In addition, the Incorporation in assay [1] was 0%. For the same compound, the Inhibition in the assay on L5178Y [2] is reported as 89%; with L5178Y [3], 87%.
`Nc1nc(S)c2c(CNC3C=C[C@H](O)C3O)c[nH]c2n1` (stereo partly specified) displayed an inhibition at 1 µg/mL in the assay on L5178Y [4] of 12%. In assay [1], the Incorporation was 78%. Also, the Inhibition was found to be 88% in the assay with L5178Y [2] and 54% in the assay on L5178Y [3].
For the compound `Nc1nc(O)c2c(CNC3C=C[C@H](O)[C@@H]3O)c[nH]c2n1` (stereo partly specified), in assay [1], the Incorporation turned out to be 70%. The results for the Inhibition in the assay on L5178Y [2] and in the assay on L5178Y [3] were 53% and less than 10%, respectively.
In the case of `Nc1nc(O)c2c(CNC3C=C[C@@H](O)C3O)c[nH]c2n1` (stereo partly specified), the Incorporation in assay [1] worked out at 120%. The Inhibition is 23% in the assay on L5178Y [2] and less than 10% in the assay on L5178Y [3].
`CC1(C)OC2C(NCc3c[nH]c4nc(N)nc(O)c34)C=C[C@H]2O1` (stereo partly specified) registered an Incorporation in assay [1] of 100%. The Inhibition with L5178Y [2] is on record as 21%; with L5178Y [3], less than 10%.
Regarding `N/C(=N/Cc1c[nH]c2nc(N)nc(O)c12)c1cc(I)c(O)c(I)c1`, the Incorporation in assay [1] amounted to 48%. Moreover, the Inhibition is on record as 89% with L5178Y [2] and 31% in the assay with L5178Y [3].
In the assay with L5178Y [4], `Nc1nc(O)c2c(CNc3cccc(O)c3)c[nH]c2n1` displayed an inhibition at 1 µg/mL of 12%. In addition, in assay [1], the Incorporation was found to be 33%. In addition, the Inhibition with L5178Y [2] was 79%; in the assay on L5178Y [3] it was 65%.
`Nc1nc(O)c2c(CNCC(O)CO)c[nH]c2n1` (stereo unspecified): in assay [1], the Incorporation stood at 88%. Besides, the results for the Inhibition in the assay with L5178Y [2] and with L5178Y [3] were 31% and less than 10%, respectively.
As for `NCc1c[nH]c2nc(N)nc(S)c12`, the inhibition at 1 µg/mL with L5178Y [4] is less than 10%. This compound returned an Incorporation in assay [1] of 50%. In addition, the Inhibition in the assay with L5178Y [2] came to 77%; in the assay with L5178Y [3], 36%.
The corresponding values for `Nc1nc(O)c2c(CNc3ccccc3O)c[nH]c2n1` are 25%, 76%, 90% and 53%.
`CC(C)C(=O)NCc1c[nH]c2nc(N)nc(O)c12`: the Incorporation in assay [1] turned out to be 36%. The Inhibition is 87% in the assay on L5178Y [2] and 16% with L5178Y [3].
Turning to `Nc1nc(O)c2c(CNCc3ccc(I)cc3)c[nH]c2n1`, in assay [1], the Incorporation was 98%. The figures for the Inhibition in the assay on L5178Y [2] and in the assay with L5178Y [3] were 77% and 19%, respectively.
In assay [1], `CC1(C)OC2C(NCc3c[nH]c4nc(N)nc(O)c34)C=C[C@@H]2O1` (stereo partly specified) returned an Incorporation of 55%. In addition, the values for the Inhibition with L5178Y [2] and with L5178Y [3] were 34% and less than 10%, respectively.
`CC1(C)OC2C(NCc3c[nH]c4nc(N)nc(S)c34)C=C[C@@H]2O1` (stereo partly specified) returned an inhibition at 1 µg/mL in the assay on L5178Y [4] of 46%. Besides, the Incorporation in assay [1] is 123%. For the same compound, the Inhibition with L5178Y [2] was 94%; in the assay on L5178Y [3], 87%.
With `Nc1nc(O)c2c(CNCCOCCO)c[nH]c2n1`, in assay [1], the Incorporation came to 98%. Also, the values for the Inhibition in the assay on L5178Y [2] and with L5178Y [3] were 9% and less than 10%, respectively.

As a reminder, the Inhibition is the drop in the measured response relative to a control, in per cent. High values mean strong suppression, low ones little suppression. Broadly, the inhibition is the change of the read-out against control, counted positive when it falls. Higher therefore signals strong suppression.
